Assay results published in ChEMBL document CHEMBL3822383, “Coumarin sulfonamides derivatives as potent and selective COX-2 inhibitors with efficacy in suppressing cancer proliferation and metastasis” (Bioorg Med Chem Lett, 2016).
pIC50: −log10 of the molar value. The source made the active and inactive calls. No cut-off for these calls is given here.

Tests used:
[1] = system: HeLa; assay: cells; settings: Homo sapiens, 24 h
Description: Antiproliferative activity against human HeLa cells after 24 hrs by MTT assay

[2] = system: HeLa; assay: Induction of apoptosis in human HeLa cells assessed as early apoptotic cells at 4 uM after 24 hrs by Annexin V/propidium iodide based flow cytometric analysis (reference value: 0.902 %); type: functional
[3] = system: HeLa; assay: Reduction in cell migration in human HeLa cells up to 4 uM by transwell migration assay; type: functional, cell-based
[4] = system: HeLa; assay: Induction of apoptosis in human HeLa cells assessed as necrotic cells at 2 uM after 24 hrs by Annexin V/propidium iodide based flow cytometric analysis (reference value: 0.441 %); type: functional
[5] = system: HeLa; assay: Induction of apoptosis in PGE2-induced human HeLa cells assessed as late apoptotic cells at 3 uM after 24 hrs by Annexin V/propidium iodide based flow cytometric analysis; type: functional, cell-based
[6] = system: HeLa; assay: Induction of apoptosis in human HeLa cells assessed as viable cells at 8 uM after 24 hrs by Annexin V/propidium iodide based flow cytometric analysis (reference value: 95.5 %); type: functional; settings: read-out: Activity
[7] = system: HeLa; assay: Reduction in cell invasion in human HeLa cells up to 4 uM by transwell invasion assay; type: functional, cell-based
[8] = system: HeLa; assay: Induction of apoptosis in human HeLa cells assessed as late apoptotic cells at 8 uM after 24 hrs by Annexin V/propidium iodide based flow cytometric analysis (reference value: 3.16 %); type: functional
[9] = system: HeLa; assay: Induction of apoptosis in PGE2-induced human HeLa cells assessed as necrotic cells at 3 uM after 24 hrs by Annexin V/propidium iodide based flow cytometric analysis; type: functional, cell-based
[10] = system: HeLa; assay: Antiproliferative activity in PGE2-induced human HeLa cells at 2 uM after 12 to 24 hrs by MTT assay; type: functional, cell-based
[11] = system: HeLa; assay: Induction of apoptosis in human HeLa cells assessed as necrotic cells at 3 uM after 12 hrs by Annexin V/propidium iodide based flow cytometric analysis (reference value: 0.441 %); type: functional
[12] = system: HeLa; assay: Reduction in cell invasion in PGE2-induced human HeLa cells at 2 uM by transwell invasion assay; type: functional, cell-based
[13] = system: HeLa; assay: Induction of apoptosis in human HeLa cells assessed as late apoptotic cells at 4 uM after 24 hrs by Annexin V/propidium iodide based flow cytometric analysis (reference value: 3.16 %); type: functional
[14] = system: HeLa; assay: Induction of apoptosis in human HeLa cells assessed as late apoptotic cells at 2 uM after 24 hrs by Annexin V/propidium iodide based flow cytometric analysis (reference value: 3.16 %); type: functional
[15] = system: HeLa; assay: Induction of apoptosis in human HeLa cells assessed as viable cells at 4 uM after 24 hrs by Annexin V/propidium iodide based flow cytometric analysis (reference value: 95.5 %); type: functional; settings: read-out: Activity
[16] = cells; settings: Homo sapiens, HEK-293T, 24 h
Description: Antiproliferative activity against human 293T cells after 24 hrs by MTT assay

[17] = system: HeLa; assay: Inhibition of PGE2 secretion in human HeLa cells at 0.1 uM after 24 hrs by EIA monoclonal assay; type: functional, cell-based
[18] = system: HeLa; assay: Induction of apoptosis in human HeLa cells assessed as viable cells at 3 uM after 36 hrs by Annexin V/propidium iodide based flow cytometric analysis (reference value: 96 %); type: functional; settings: read-out: Activity
[19] = system: HeLa; assay: Induction of apoptosis in human HeLa cells assessed as viable cells at 3 uM after 12 hrs by Annexin V/propidium iodide based flow cytometric analysis (reference value: 96 %); type: functional; settings: read-out: Activity
[20] = system: HeLa; assay: Induction of apoptosis in PGE2-induced human HeLa cells assessed as early apoptotic cells at 3 uM after 24 hrs by Annexin V/propidium iodide based flow cytometric analysis; type: functional, cell-based
[21] = system: HeLa; assay: Induction of apoptosis in human HeLa cells assessed as late apoptotic cells at 3 uM after 12 hrs by Annexin V/propidium iodide based flow cytometric analysis (reference value: 2.21 %); type: functional
[22] = system: HeLa; assay: Induction of apoptosis in human HeLa cells assessed as necrotic cells at 3 uM after 36 hrs by Annexin V/propidium iodide based flow cytometric analysis (reference value: 0.207 %); type: functional
[23] = system: HeLa; assay: Inhibition of cell adhesion in human HeLa cells assessed as reduction in cell attachment at 2 uM after 1 hr by MTT assay; type: functional
[24] = system: HeLa; assay: Induction of apoptosis in human HeLa cells assessed as necrotic cells at 8 uM after 24 hrs by Annexin V/propidium iodide based flow cytometric analysis (reference value: 0.441 %); type: functional
[25] = system: HeLa; assay: Induction of apoptosis in human HeLa cells assessed as necrotic cells at 3 uM after 24 hrs by Annexin V/propidium iodide based flow cytometric analysis (reference value: 0.207 %); type: functional
[26] = system: HeLa; assay: Induction of apoptosis in human HeLa cells assessed as late apoptotic cells at 3 uM after 24 hrs by Annexin V/propidium iodide based flow cytometric analysis (reference value: 2.21 %); type: functional
[27] = system: HeLa; assay: Induction of apoptosis in human HeLa cells assessed as late apoptotic cells at 1 uM after 24 hrs by Annexin V/propidium iodide based flow cytometric analysis (reference value: 3.16 %); type: functional
[28] = system: HeLa; assay: Inhibition of cell adhesion in human HeLa cells assessed as reduction in cell attachment after 1 hr by MTT assay; type: functional, cell-based
[29] = system: HeLa; assay: Induction of apoptosis in human HeLa cells assessed as early apoptotic cells at 3 uM after 12 hrs by Annexin V/propidium iodide based flow cytometric analysis (reference value: 1.61 %); type: functional
[30] = system: HeLa; assay: Induction of apoptosis in human HeLa cells assessed as late apoptotic cells at 3 uM after 36 hrs by Annexin V/propidium iodide based flow cytometric analysis (reference value: 2.21 %); type: functional
[31] = system: HeLa; assay: Induction of apoptosis in PGE2-induced human HeLa cells assessed as viable cells at 3 uM after 24 hrs by Annexin V/propidium iodide based flow cytometric analysis; type: functional, cell-based
[32] = target: Prostaglandin G/H synthase 1 (Homo sapiens, UniProt P23219); assay: Inhibition of human COX1 using arachidonic acid assessed as production of PGF2alpha after 5 mins by ELISA
Prostaglandin G/H synthase 1, sequence (P23219 whole entry): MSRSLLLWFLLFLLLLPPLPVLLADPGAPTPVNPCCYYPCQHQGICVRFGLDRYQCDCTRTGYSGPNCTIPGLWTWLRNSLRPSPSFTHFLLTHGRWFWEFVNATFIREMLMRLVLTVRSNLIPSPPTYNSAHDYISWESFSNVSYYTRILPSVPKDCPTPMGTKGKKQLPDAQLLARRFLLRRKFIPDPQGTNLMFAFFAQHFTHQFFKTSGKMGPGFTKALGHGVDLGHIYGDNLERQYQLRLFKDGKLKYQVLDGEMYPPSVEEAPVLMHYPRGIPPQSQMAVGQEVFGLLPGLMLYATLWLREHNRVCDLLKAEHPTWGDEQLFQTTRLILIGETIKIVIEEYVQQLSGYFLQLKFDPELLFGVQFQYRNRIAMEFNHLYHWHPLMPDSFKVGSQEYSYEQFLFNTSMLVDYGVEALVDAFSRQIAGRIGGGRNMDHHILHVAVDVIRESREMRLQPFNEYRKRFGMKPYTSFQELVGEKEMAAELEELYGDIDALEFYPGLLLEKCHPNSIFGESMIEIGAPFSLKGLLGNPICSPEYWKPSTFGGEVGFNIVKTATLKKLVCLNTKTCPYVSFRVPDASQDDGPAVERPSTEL

[33] = system: HeLa; assay: Induction of apoptosis in human HeLa cells assessed as viable cells at 1 uM after 24 hrs by Annexin V/propidium iodide based flow cytometric analysis (reference value: 95.5 %); type: functional; settings: read-out: Activity
[34] = system: HeLa; assay: Induction of apoptosis in human HeLa cells assessed as necrotic cells at 4 uM after 24 hrs by Annexin V/propidium iodide based flow cytometric analysis (reference value: 0.441 %); type: functional
[35] = system: HepG2; assay: cells; settings: Homo sapiens, HepG2, 24 h
Description: Antiproliferative activity against human HepG2 cells after 24 hrs by MTT assay

[36] = system: HeLa; assay: Induction of apoptosis in human HeLa cells assessed as necrotic cells at 3 uM after 12 hrs by Annexin V/propidium iodide based flow cytometric analysis (reference value: 0.207 %); type: functional
[37] = system: HeLa; assay: Induction of apoptosis in human HeLa cells assessed as viable cells at 3 uM after 24 hrs by Annexin V/propidium iodide based flow cytometric analysis (reference value: 96 %); type: functional; settings: read-out: Activity
[38] = system: A549; assay: cells; settings: Homo sapiens, A549, 24 h
Description: Antiproliferative activity against human A549 cells after 24 hrs by MTT assay

[39] = system: HeLa; assay: Induction of apoptosis in human HeLa cells assessed as early apoptotic cells at 1 uM after 24 hrs by Annexin V/propidium iodide based flow cytometric analysis (reference value: 0.902 %); type: functional
[40] = system: HeLa; assay: Induction of apoptosis in human HeLa cells assessed as viable cells at 2 uM after 24 hrs by Annexin V/propidium iodide based flow cytometric analysis (reference value: 95.5 %); type: functional; settings: read-out: Activity
[41] = cells; settings: Homo sapiens, L02, 24 h
Description: Antiproliferative activity against human LO2 cells after 24 hrs by MTT assay

[42] = system: HeLa; assay: Induction of apoptosis in human HeLa cells assessed as necrotic cells at 1 uM after 24 hrs by Annexin V/propidium iodide based flow cytometric analysis (reference value: 0.441 %); type: functional
[43] = system: HeLa; assay: Induction of apoptosis in human HeLa cells assessed as early apoptotic cells at 3 uM after 24 hrs by Annexin V/propidium iodide based flow cytometric analysis (reference value: 1.61 %); type: functional
[44] = system: HeLa; assay: Induction of apoptosis in human HeLa cells assessed as early apoptotic cells at 3 uM after 36 hrs by Annexin V/propidium iodide based flow cytometric analysis (reference value: 1.61 %); type: functional
[45] = system: HeLa; assay: Induction of apoptosis in human HeLa cells assessed as early apoptotic cells at 8 uM after 24 hrs by Annexin V/propidium iodide based flow cytometric analysis (reference value: 0.902 %); type: functional
[46] = system: HeLa; assay: Induction of apoptosis in human HeLa cells assessed as early apoptotic cells at 2 uM after 24 hrs by Annexin V/propidium iodide based flow cytometric analysis (reference value: 0.902 %); type: functional
[47] = system: HeLa; assay: Reduction in cell migration in PGE2-induced human HeLa cells at 2 uM by transwell migration assay; type: functional, cell-based
[48] = cells; settings: Mus musculus, B16-F10, 24 h
Description: Antiproliferative activity against mouse B16F10 cells after 24 hrs by MTT assay

[49] = system: HeLa; assay: Inhibition of cell adhesion in PGE2-induced human HeLa cells assessed as reduction in cell attachment at 2 uM after 12 hrs by MTT assay; type: functional, cell-based

Compound: NS(=O)(=O)c1ccc(-n2nc(C(=O)N/N=C/c3c(Cl)c4ccccc4oc3=O)cc2-c2ccc(C(F)(F)F)cc2)cc1
- pIC50 [1]: 6.44
- Activity [2]: 24.8%
- Activity [3]: Dose-dependent effect
- Activity [4]: 0.143%
- Activity [5]: Active
- viability at 8 µM [6]: 49%
- Activity [7]: Active
- Activity [8]: 15.6%
- Activity [9]: Active
- Activity [10]: Active
- Activity [11]: 0.276%
- Activity [12]: Active
- Activity [13]: 11%
- Activity [14]: 6.29%
- viability at 4 µM [15]: 62%
- pIC50 [16]: 3.63
- inhibition [17]: Active
- viability at 3 µM [18]: 66.6%
- viability at 3 µM [19]: 92.9%
- Activity [20]: Active
- Activity [21]: 3.02%
- Activity [22]: 1.62%
- inhibition at 2 µM [23]: 60%
- Activity [24]: 1.82%
- Activity [25]: 0.049%
- Activity [26]: 8.83%
- Activity [27]: 3.58%
- inhibition [28]: Dose-dependent effect
- Activity [29]: 3.79%
- Activity [30]: 10.2%
- Activity [31]: Active
- pIC50 [32]: 4.32
- viability at 1 µM [33]: 94%
- Activity [34]: 2.14%
- pIC50 [35]: 6.07
- Activity [36]: 0.276%
- viability at 3 µM [37]: 76.3%
- pIC50 [38]: 5.59
- Activity [39]: 2.12%
- viability at 2 µM [40]: 85.9%
- pIC50 [41]: 3.57
- Activity [42]: 0.301%
- Activity [43]: 14.8%
- Activity [44]: 21.6%
- Activity [45]: 33.6%
- Activity [46]: 7.64%
- Activity [47]: Active
- pIC50 [48]: 5.64
- inhibition [49]: Active
